Literature values as cited in patent publication US9895393B2, “Topical formulations for increasing the dermal concentration of hyaluronic acid” (SHAMROC, INC., priority 2012, dated 2018).
Peptide text beside a SMILES is read from it. * marks the point of attachment. Palmitoyl = CCCCCCCCCCCCCCCC(=O)*

Key:
[1] = system: skin; conditions: Studies have shown
[2] = system: lipid peroxidation
[3] = system: human fibroblasts

SMILES | collagen production [1] | melanogenesis (the production of pigment) [1] | anti-oxidant activity [2] | collagen synthesis [3]
CCCCCCCCC(CCCCCC)C(=O)OC[C@H](OC(=O)C(CCCCCC)CCCCCCCC)[C@H]1OC(=O)C(OC(=O)C(CCCCCC)CCCCCCCC)=C1OC(=O)C(CCCCCC)CCCCCCCC (stereo partly shown) [tetrahexyldecyl ascorbate] | stimulate collagen production | inhibiting melanogenesis | inhibiting lipid peroxidation | 
CCCCCCCCCCCCCCCC(=O)N[C@@H](CCCCN)C(=O)N[C@H](C(=O)N[C@@H](CCCCN)C(=O)O)C(C)C.O=C(O)C(F)(F)F.O=C(O)C(F)(F)F [palmitoyl-lysyl-valyl-lysine bistrifluoroacetate] (Palmitoyl-Lys-Val-Lys-OH) |  |  |  | stimulates collagen synthesis
